Data on one molecule can be found in patent publication US6063803A, “Octahydropyrrolo-[3,4-c]carbazoles useful as analgesic agents” (Ortho-McNeil Pharmaceutical, Inc., priority 1999, dated 2000).

Molecules are shown by their SMILES.

The target in this assay is α1-adrenergic receptor. The assay is described as follows: α1-adrenergic receptor binding (3H-prazosin displacement, rat cortex membranes). More on the design: species or system rat (Wistar). As to conditions: 3H-prazosin 0.05 nM, 25° C., 20 min. The text has this: Charles River male Wistar (virus-free) rats were group housed for approximately one week and given food and water (Wayne Lab Blox) ad libitum. Animals were exposed to equal hours(12--12) of dark and light and used at a weight range of 150-280 g (8 to 10 weeks of age). Rats were sacrificed by cervical dislocation and their brains were rapidly excised and immediately placed on ice. The cortex was removed, weighed, and used immediately or frozen on dry ice.
The frozen tissue was homogenized in 20 volumes of HEPES buffered sucrose (10 mM HEPES, 300 mM sucrose, pH 7.5) using a motor driven Teflon pestle/glass homogenizer (all homogenates and solutions were maintained at 4-8° C.). The homogenate was centrifuged at 1000×g for 10 minutes, and the supernatant was recentrifuged at 48,000×g for 10 min. […]
The samples were incubated in a 25° C. water bath for 20 min, harvested on a Brandel Cell Harvester on to Wallac filtermat-B sheets (96 sample format), washed three times with 2 mL cold HEPES-buffer (10 mM, pH 7.5), and dried in a microwave oven. To each sample area 80 ul of Betaplate Scint scintillation fluid (LKB) was added and analyzed on a LKB (Wallac) 1205 BetaPlate liquid scintillation counter.
The data were used to calculate either the % inhibition compared to control binding (a single concentration of test compound is evaluated) or a Ki value (a range of concentrations are tested). […]

Take `CN1CC2CCc3[nH]c4ccccc4c3C2C1` (single isomer, unassigned) [Compound 58]: affinity was put at a Ki of 61 nM. In other words, the double-digit nanomolar range.
